# Measured values published in paper PMC10363480 (Plant Communications, 2023).
# System: mitochondria or chloroplast of Chlamydomonas reinhardtii
# Assay: Subcellular localization of Venus reporter by epifluorescence microscopy (manual targeting assignment)
# Type: cell-based
# Settings: C-terminal element of RCA1-cTP added to the named peptide; Figure 2 rows E and F; bare name = K and R versions
# Source text: In a bid to keep peptidase recognition sites intact, C-terminal elements were designed to start 10 residues upstream of the cleavage site, even though this slightly truncates TP helices. Peptides carrying the 15-amino-acid cTP N-terminus (cTP-N) will be denoted ^cP. Similarly, peptides with C-terminal elements from RCA1-cTP (cTP-C) or CAG2-mTP (mTP-C) will be denoted P^c or P^m, respectively. Peptide variants are used to drive the subcellular localization of a Venus fluorescent reporter protein, which was assessed using fluorescence microscopy; in Figure 2, an executive overview of observed Venus localization is presented for all constructs. […] Here, we use automated image segmentation to validate our subcellular localization assessment (Supplemental Figure 2, Supplemental text). […] The reader will be asked to return to Figure 2 throughout, with Figures 3 and 4 providing selected micrographs as examples highlighting particular points of interest.
# Chlamydomonas TP sequences were amplified from genomic DNA extracted from strain T222+ (CC-5101). Templates for codon-optimized HA-RAMP, RP, and R→K modified TP sequences were obtained by gene synthesis (Eurofins Genomics). Correct assembly was verified by sequencing (Eurofins Genomics). Linear transformation cassettes were generated through restriction digestion with EcoRV (New England Biolabs).
# Constructs were transformed into wild-type strain T222+ (CC-5101) using a protocol described previously ([Onishi and Pringle, 2016]), except using 4 μl of DNA at 2 μg/μl.
# Strains with suspected mitochondrial targeting were treated with 0.1 μM MitoTracker Red CMXRos (Thermo Fisher Scientific) in growth medium for 30 min in the dark and washed with TAP prior to taking images.
# Legend for Fig. S3 – S20. Three independent transformant lines (Strains 1-3) are shown for each combination of modifications (A-L), represented by a cartoon and a shorthand description (cf. Fig.
# 2). Where a construct was interpreted as generating reporter localization in mitochondria or […]
# Epifluorescence microscopy images of typical cells for each strain are shown. MitoTracker fluorescence, false-coloured in cyan, indicates the position of mitochondria (although parts of the cell exterior are sometimes also stained). False-coloured yellow fluorescence from the Venus channel reports on the subcellular localization of the fluorescent reporter. Chlorophyll autofluorescence, shown in magenta, indicates the location of the chloroplast. Scale bars are 5µm. Brightness (Br.) was adjusted for clarity: fluorescence intensity values were restricted to the range shown for each channel by matching coloured rectangles. Intensity scales to 0 at the bottom of the panel, and to 65535 at the top.
# On the right-hand side, quantitative information associated with each construct is shown. Data was normalized such that averages range from 0 to 1 across all constructs (cf. Fig S2). Individual cell measurements may exceed this range; for clarity, the range shown here is limited to -0.5 to 1.5, with outliers that have more extreme values shown as lying beyond a dashed line. Strain 1 is plotted as circles, strain 2 as squares, and strain 3 as diamonds. Venus: Fluorescence plate reader data of transformants screened for this construct (Venus fluorescence, accounting for cell density using linear regression of OD750 and chlorophyll fluorescence trained on ‘no venus’ control transformants). Transformants that were not selected after screening are shown as small grey circles. A colour code ranging from white (low Venus fluorescence) to black (high Venus fluorescence) is used for strains 1-3 and the average thereof. Automated image quantification data: pyr/chl: Venus channel signal in the pyrenoid relative to in the chlorophyll region; mt/cell: Venus channel signal in mitochondria relative to the whole cell. Each point corresponds to a single cell.
# The colour code code is the same as that below distributions in Fig. S2, i.e. blue highlights the […]
row,Sequence,chloroplast targeting upon addition of cTP-C (P^c)
1,"KYYGNGVHCTKSGCSVNWGEAFSAGVHRLANGGNGFW [LCA, leucocin A, HA-RAMP antimicrobial peptide, reference compound]",enabled chloroplast targeting

# Same assay, conditions: C-terminal element of RCA1-cTP added to the named peptide; Figure 2 rows E and F; bare name = K and R versions; listed as LCAK
row,Sequence,chloroplast targeting upon addition of cTP-C (P^c)
1,"KYYGNGVHCTKSGCSVNWGEAFSAGVHRLANGGNGFW [LCA, leucocin A, HA-RAMP antimicrobial peptide, reference compound]",Gain of partial chloroplast targeting

# Same assay, conditions: Figure 2; bare name = K and R versions
row,Sequence,targeting when combining cTP-N with mTP-C (^cP^m)
1,"KYYGNGVHCTKSGCSVNWGEAFSAGVHRLANGGNGFW [LCA, leucocin A, HA-RAMP antimicrobial peptide, reference compound]",chloroplast targeting

# Same assay, conditions: manual targeting assignment of the Venus reporter construct in Chlamydomonas: Neither / Mitochondria / Chloroplast / Dual, (partial) = partial targeting
row,Sequence,Localisation
1,MQVTMKSSAVSGQRVMLKKVGQSLVPFAKAGSVRRAQLQVVASSRKQMGRWRSIDAGVDASDDQ [c.MH.K.c],Chloroplast
2,MGRIPVRAIRRAGAAIGRGLRAINIASTAHDVYSFFRPRHRRRSVRRAQLQVVASSRKQMGRWRSIDAGVDASDDQ [SIM.R.c],Neither
3,MGWIRDFGRRIERVGQHTRDATIQTIAVAQQAANVAATLRGLTQTAESFRGVSSQFFDAPNGPSVKQVLIEDEW [S1D.R.m],Neither
4,MQVTMKSSAVSGQKVGGAKVATKLTQTAESFRGVSSQFFDAPNGPSVKQVLIEDEW [c.CH.K.m],Neither
5,MGWIRDFGRRIERVGQHTRDATIQTIAVAQQAANVAATLRG [S1D.R],Neither
6,MSFLTTFRDLAIRAARSAGQSVLSTLSCRLSNTCLTQTAESFRGVSSQFFDAPNGPSVKQVLIEDEW [B2I.R.m],Mitochondria
7,MLKRVGQSLVPFARAG [MH.R],Mitochondria (partial)
8,MQVTMKSSAVSGQRVRYYGNGVSCNRRGCSVDWGRAIGIIGNNAAANLTTGGRAGWRGLTQTAESFRGVSSQFFDAPNGPSVKQVLIEDEW [c.EHF.R.m],Chloroplast
9,MGLLLDTLRGAARDIAGIALERLRCRITGCRPLTQTAESFRGVSSQFFDAPNGPSVKQVLIEDEW [R2G.R.m],Mitochondria
10,MSVRRAQLQVVASSRKQMGRWRSIDAGVDASDDQ [-.c],Neither
11,MQVTMKSSAVSGQRVMLKKVGQSLVPFAKAG [c.MH.K],Neither
12,MQVTMKSSAVSGQRVRYYGNGVSCNRRGCSVDWGRAIGIIGNNAAANLTTGGRAGWRGSVRRAQLQVVASSRKQMGRWRSIDAGVDASDDQ [c.EHF.R.c],Chloroplast
13,MALWRTMLRRLGTMALHAGRAAFGAAADTISQ [DDM.R],Neither
14,MQVTMKSSAVSGQRVALWRTMLRRLGTMALHAGRAAFGAAADTISQSVRRAQLQVVASSRKQMGRWRSIDAGVDASDDQ [c.DDM.R.c],Chloroplast
15,MRYYGNGVSCNRRGCSVDWGRAIGIIGNNAAANLTTGGRAGWRGSVRRAQLQVVASSRKQMGRWRSIDAGVDASDDQ [EHF.R.c],Chloroplast
16,MQVTMKSSAVSGQRVDEVNNDNCRIRFRGDISSESDRMNINY [c.RP2.R],Neither

# Same assay, conditions: peptide-Venus reporter construct expressed in Chlamydomonas reinhardtii; manual targeting assignment (Neither / Mitochondria / Chloroplast / Dual; partial = partial targeting)
row,Sequence,Localisation
1,MFLPLLAGLAANFLPKIFCKITRKCLTQTAESFRGVSSQFFDAPNGPSVKQVLIEDEW [B1E.K.m],Neither
2,MKYYGNGVHCTKSGCSVNWGEAFSAGVHRLANGGNGFW [LCA.K],Neither
3,MALWMTLLKKVLKAAAKAALNAVLVGANASVRRAQLQVVASSRKQMGRWRSIDAGVDASDDQ [DS4.K.c],Neither
4,MQVTMKSSAVSGQRVMWLSKTAKKLENSAKKRISEGIAIAIKGGSRSVRRAQLQVVASSRKQMGRWRSIDAGVDASDDQ [c.CP3.K.c],Neither
5,MKYYGNGVHCTRSGCSVNWGEAFSAGVHRLANGGNGFWSVRRAQLQVVASSRKQMGRWRSIDAGVDASDDQ [LCA.R.c],Chloroplast (partial)
6,MGLFSKFNKKKIKSGLIKIIKTAGKEAGLEALRTGIDVIGCKIKGEC [E1S.K],Neither
7,MWLSKTAKKLENSAKKRISEGIAIAIKGGSRLTQTAESFRGVSSQFFDAPNGPSVKQVLIEDEW [CP3.K.m],Neither
8,MGLFSKFNKKKIKSGLIKIIKTAGKEAGLEALRTGIDVIGCKIKGECLTQTAESFRGVSSQFFDAPNGPSVKQVLIEDEW [E1S.K.m],Neither
9,MGLFSRFNRRRIRSGLIRIIRTAGREAGLEALRTGIDVIGCRIRGECLTQTAESFRGVSSQFFDAPNGPSVKQVLIEDEW [E1S.R.m],Mitochondria (partial)
10,MGLFSRFNRRRIRSGLIRIIRTAGREAGLEALRTGIDVIGCRIRGEC [E1S.R],Neither
11,MQVTMKSSAVSGQRVGIGRFLHSARRFGRAFVGEIMNS [c.MII.R],Mitochondria
12,MVNYGNGVSCSKTKCSVNWGIITHQAFRVTSGVASGSVRRAQLQVVASSRKQMGRWRSIDAGVDASDDQ [B15.K.c],Chloroplast
13,MQVTMKSSAVSGQRVMKYYGNGVHCTRSGCSVNWGEAFSAGVHRLANGGNGFW [c.LCA.R],Neither
14,MQVTMKSSAVSGQRVFLPLLAGLAANFLPKIFCKITRKCSVRRAQLQVVASSRKQMGRWRSIDAGVDASDDQ [c.B1E.K.c],Chloroplast
15,MKYYGNGVHCTRSGCSVNWGEAFSAGVHRLANGGNGFW [LCA.R],Neither
16,MWLSRTARRLENSARRRISEGIAIAIRGGSRLTQTAESFRGVSSQFFDAPNGPSVKQVLIEDEW [CP3.R.m],Mitochondria
17,MWLSRTARRLENSARRRISEGIAIAIRGGSRSVRRAQLQVVASSRKQMGRWRSIDAGVDASDDQ [CP3.R.c],Chloroplast
18,MKYYGNGVHCTKSGCSVNWGEAFSAGVHRLANGGNGFWSVRRAQLQVVASSRKQMGRWRSIDAGVDASDDQ [LCA.K.c],Chloroplast (partial)
19,MQVTMKSSAVSGQRVGIGKFLHSAKKFGKAFVGEIMNS [c.MII.K],Mitochondria
20,MKYYGNGVHCTRSGCSVNWGEAFSAGVHRLANGGNGFWLTQTAESFRGVSSQFFDAPNGPSVKQVLIEDEW [LCA.R.m],Neither

# Same assay, conditions: targeting of the Venus reporter fused to the peptide, expressed in Chlamydomonas reinhardtii; manual assignment from epifluorescence microscopy; full or partial
row,Sequence,Localisation
1,MQVTMKSSAVSGQRVMGWIRDFGKRIERVGQHTRDATIQTIAVAQQAANVAATLKGLTQTAESFRGVSSQFFDAPNGPSVKQVLIEDEW [c.S1D.K.m],Dual
2,MQVTMKSSAVSGQRVFLPLLAGLAANFLPRIFCRITRRCSVRRAQLQVVASSRKQMGRWRSIDAGVDASDDQ [c.B1E.R.c],Chloroplast
3,MQVTMKSSAVSGQRVFLPLLAGLAANFLPKIFCKITRKC [c.B1E.K],Mitochondria
4,MQVTMKSSAVSGQRVMGLFSRFNRRRIRSGLIRIIRTAGREAGLEALRTGIDVIGCRIRGECLTQTAESFRGVSSQFFDAPNGPSVKQVLIEDEW [c.E1S.R.m],Chloroplast
5,MALWKTMLKKLGTMALHAGKAAFGAAADTISQSVRRAQLQVVASSRKQMGRWRSIDAGVDASDDQ [DDM.K.c],Neither
6,MQVTMKSSAVSGQRVMGWIRDFGKRIERVGQHTRDATIQTIAVAQQAANVAATLKGSVRRAQLQVVASSRKQMGRWRSIDAGVDASDDQ [c.S1D.K.c],Chloroplast
7,MQVTMKSSAVSGQRVMKYYGNGVSCNKKGCSVDWGKAIGIIGNNAAANLTTGGKAGWKG [c.EHF.K],Neither
8,MKYYGNGVSCNKKGCSVDWGKAIGIIGNNAAANLTTGGKAGWKGSVRRAQLQVVASSRKQMGRWRSIDAGVDASDDQ [EHF.K.c],Chloroplast (partial)
9,MQVTMKSSAVSGQRV [c.-],Neither
10,MQVTMKSSAVSGQRVDEVNNDNCRIKFKGDISSESDKMNINYSVRRAQLQVVASSRKQMGRWRSIDAGVDASDDQ [c.RP2.K.c],Neither
11,MQVTMKSSAVSGQRVNIVVYWNFTLWHMDINARNAGCDGEGSSVRRAQLQVVASSRKQMGRWRSIDAGVDASDDQ [c.RP1.K.c],Neither
12,MSFLTTFKDLAIKAAKSAGQSVLSTLSCKLSNTC [B2I.K],Mitochondria
13,MDEVNNDNCRIKFKGDISSESDKMNINYSVRRAQLQVVASSRKQMGRWRSIDAGVDASDDQ [RP2.K.c],Neither
14,MQVTMKSSAVSGQRVMGLFSRFNRRRIRSGLIRIIRTAGREAGLEALRTGIDVIGCRIRGEC [c.E1S.R],Chloroplast
